Reference: patent US20250248998A1, “LRRK2 Inhibitors” (Brenig Therapeutics, Inc., priority 2022, published 2025)

What was measured:
LRRK2 WT = LRRK2 WT (Homo sapiens, UniProt Q5S007); experiment: Cell-based NanoBRET target engagement assay in HEK293 cells transfected with LRRK2 WT-NanoLuc fusion vector; design: expressed in transfected cells; host or cells: HEK293 (ATCC); details: compound treatment 1 h
Method: (§1) Example C. Cell-Based NanoBRET Target Engagement Assay in 11EK293 Cells Transiently Transfected with LRRK2 WT- or LRRK2 (G2019S)-Nano Luc Fusion Vector
(§2) H1EK293 (ATCC) cells were transfected with […] LRRK2 WT or LRRK2 (G2019S) and 9 μg transfection carrier DNA. The transfected cells were treated with the compounds (starting at 1 μM, 10-dose with 3-fold dilution) and reference compounds CEP-701 or Staurosporine (starting at 1 μM, 10-dose with 3-fold dilution); compound treatment time: 1 h. LRRK2 WT and LRRK2 (G2019S) target engagement was measured by NanoBRET assay. Curve fits were performed only when % NanoBret signal at the highest concentration of compounds was less than […]. Assay format: 384-well format, 4000 cells/well. The IC50 values are shown in Table C, wherein “A” corresponds to IC50≤50.0 nM, “B” corresponds to 50.0 nM≤IC50<100.0 nM, “C” corresponds to 100.0 nM≤IC50.

LRRK2[G2019S] = LRRK2[G2019S] (Homo sapiens, UniProt Q5S007, G2019S); experiment: Cell-based NanoBRET target engagement assay in HEK293 cells transfected with LRRK2 (G2019S)-NanoLuc fusion vector; design: expressed in transfected cells; host or cells: HEK293 (ATCC); details: compound treatment 1 h
Method: as §1, §2

Sequence of LRRK2 WT (Q5S007 whole entry, the tested form may be a part): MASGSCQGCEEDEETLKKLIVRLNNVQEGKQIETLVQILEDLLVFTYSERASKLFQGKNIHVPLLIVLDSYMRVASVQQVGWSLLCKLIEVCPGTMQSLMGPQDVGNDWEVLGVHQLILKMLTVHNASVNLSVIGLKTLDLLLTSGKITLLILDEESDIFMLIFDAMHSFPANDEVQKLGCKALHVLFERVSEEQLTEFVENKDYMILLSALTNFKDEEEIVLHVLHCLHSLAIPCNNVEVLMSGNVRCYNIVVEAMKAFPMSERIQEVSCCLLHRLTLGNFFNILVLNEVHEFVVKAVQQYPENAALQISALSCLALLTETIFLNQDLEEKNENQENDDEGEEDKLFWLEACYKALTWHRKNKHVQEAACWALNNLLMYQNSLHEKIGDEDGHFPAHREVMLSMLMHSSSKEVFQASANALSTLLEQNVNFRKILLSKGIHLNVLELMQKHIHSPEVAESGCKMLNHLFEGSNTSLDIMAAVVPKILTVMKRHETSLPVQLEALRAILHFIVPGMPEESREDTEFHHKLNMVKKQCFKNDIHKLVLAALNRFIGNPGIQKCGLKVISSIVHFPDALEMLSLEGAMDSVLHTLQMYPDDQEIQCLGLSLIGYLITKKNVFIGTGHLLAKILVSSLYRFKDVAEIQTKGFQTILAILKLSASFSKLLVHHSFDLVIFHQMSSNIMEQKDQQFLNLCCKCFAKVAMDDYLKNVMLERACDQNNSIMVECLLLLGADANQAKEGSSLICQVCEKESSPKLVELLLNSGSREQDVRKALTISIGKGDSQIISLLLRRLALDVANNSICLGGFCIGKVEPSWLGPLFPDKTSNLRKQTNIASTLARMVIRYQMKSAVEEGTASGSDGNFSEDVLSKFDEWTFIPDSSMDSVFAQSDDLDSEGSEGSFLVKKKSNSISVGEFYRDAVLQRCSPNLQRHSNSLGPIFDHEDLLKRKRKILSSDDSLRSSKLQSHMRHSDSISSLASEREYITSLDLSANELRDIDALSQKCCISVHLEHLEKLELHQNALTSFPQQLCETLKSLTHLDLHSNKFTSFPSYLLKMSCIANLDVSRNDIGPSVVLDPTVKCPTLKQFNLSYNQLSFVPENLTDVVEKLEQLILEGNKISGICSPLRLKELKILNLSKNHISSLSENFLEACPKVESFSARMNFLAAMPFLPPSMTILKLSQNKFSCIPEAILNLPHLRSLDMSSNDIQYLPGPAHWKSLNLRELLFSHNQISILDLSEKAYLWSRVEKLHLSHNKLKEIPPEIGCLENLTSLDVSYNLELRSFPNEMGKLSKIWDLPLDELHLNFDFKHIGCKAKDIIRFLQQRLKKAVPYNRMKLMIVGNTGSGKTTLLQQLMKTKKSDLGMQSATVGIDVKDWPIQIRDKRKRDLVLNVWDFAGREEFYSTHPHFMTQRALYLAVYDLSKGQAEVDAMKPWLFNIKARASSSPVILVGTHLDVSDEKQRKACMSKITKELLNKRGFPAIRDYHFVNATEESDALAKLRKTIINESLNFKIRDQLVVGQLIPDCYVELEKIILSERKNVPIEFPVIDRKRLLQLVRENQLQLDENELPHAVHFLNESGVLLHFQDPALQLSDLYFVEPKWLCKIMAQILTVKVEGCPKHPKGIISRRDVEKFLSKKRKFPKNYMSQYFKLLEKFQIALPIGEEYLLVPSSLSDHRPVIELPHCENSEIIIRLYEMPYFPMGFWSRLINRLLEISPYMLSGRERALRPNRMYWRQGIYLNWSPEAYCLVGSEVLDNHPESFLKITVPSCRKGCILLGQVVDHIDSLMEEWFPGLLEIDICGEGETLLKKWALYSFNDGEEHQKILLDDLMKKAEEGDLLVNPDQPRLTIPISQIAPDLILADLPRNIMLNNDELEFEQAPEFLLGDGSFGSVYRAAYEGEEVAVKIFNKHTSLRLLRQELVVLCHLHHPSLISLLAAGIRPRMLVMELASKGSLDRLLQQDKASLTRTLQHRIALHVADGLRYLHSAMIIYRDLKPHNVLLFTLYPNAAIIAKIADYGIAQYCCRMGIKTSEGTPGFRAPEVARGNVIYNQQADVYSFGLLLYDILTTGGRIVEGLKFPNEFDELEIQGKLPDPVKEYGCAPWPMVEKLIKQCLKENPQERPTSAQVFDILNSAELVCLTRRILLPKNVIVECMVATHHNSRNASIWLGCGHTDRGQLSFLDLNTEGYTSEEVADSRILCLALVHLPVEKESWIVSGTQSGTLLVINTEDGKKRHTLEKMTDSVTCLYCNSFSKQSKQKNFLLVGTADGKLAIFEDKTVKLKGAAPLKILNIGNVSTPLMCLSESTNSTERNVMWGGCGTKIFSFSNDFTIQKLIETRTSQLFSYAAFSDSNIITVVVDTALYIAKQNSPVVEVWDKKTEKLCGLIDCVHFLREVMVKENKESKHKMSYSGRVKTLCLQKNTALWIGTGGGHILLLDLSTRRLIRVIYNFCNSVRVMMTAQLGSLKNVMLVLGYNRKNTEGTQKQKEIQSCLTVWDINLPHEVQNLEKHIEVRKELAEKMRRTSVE
Sequence of LRRK2[G2019S] (Q5S007 whole entry G2019S, the tested form may be a part): as the sequence (Q5S007 whole entry, the tested form may be a part) above, with G2019S counted along it

IC50 (LRRK2 WT) [nM] | IC50 (LRRK2[G2019S]) [nM] | Structure (SMILES)
≤ 50 | ≤ 50 | CC1(Oc2ccc3[nH]nc(-c4cc(N5CC(C)(C)C6COCC65)c(=O)n(C5CC5)n4)c3c2)CC1 (centres unmarked) [Compound 49, 2-cyclopropyl-4-(3,3-dimethyl-3a,4,6,6a-tetrahydro-2H-furo[3,4-b]pyrrol-1-yl)-6-[5-(1-methylcyclopropoxy)-1H-indazol-3-yl]pyridazin-3-one]
≤ 50 | ≤ 50 | CC1(Oc2ccc3[nH]nc(-c4cc(N5CCOCC6(CC6)C5)c(=O)n(C5CC5)n4)c3c2)CC1 [Compound 53, 2-cyclopropyl-6-[5-(1-methylcyclopropoxy)-1H-indazol-3-yl]-4-(5-oxa-8-azaspiro[2.6]nonan-8-yl)pyridazin-3-one]
≤ 50 | ≤ 50 | Cn1nc(-c2n[nH]c3ccc(OC4(C)CC4)cc23)cc(N2CC(F)C(C)(C)C2)c1=O (centres unmarked) [Compound 55, 4-(4-fluoro-3,3-dimethyl-pyrrolidin-1-yl)-2-methyl-6-[5-(1-methylcyclopropoxy)-1H-indazol-3-yl]pyridazin-3-one]
≤ 50 | ≤ 50 | Cn1nc(-c2n[nH]c3ccc(OC4(C)CC4)cc23)cc(N2CC(F)C3(CC3)C2)c1=O (centres unmarked) [Compound 57, 4-(7-fluoro-5-azaspiro[2.4]heptan-5-yl)-2-methyl-6-[5-(1-methylcyclopropoxy)-1H-indazol-3-yl]pyridazin-3-one]
≤ 50 | ≤ 50 | CC1(Oc2ccc3[nH]nc(-c4cc(N5CC(F)C6(CC6)C5)c(=O)n(C5CC5)n4)c3c2)CC1 (centres unmarked) [Compound 59, 2-cyclopropyl-4-(7-fluoro-5-azaspiro[2.4]heptan-5-yl)-6-[5-(1-methylcyclopropoxy)-1H-indazol-3-yl]pyridazin-3-one]
≤ 50 | ≤ 50 | CC1(Oc2ccc3[nH]nc(-c4cc(N5CC(F)C(C)(C)C5)c(=O)n(C5CC5)n4)c3c2)CC1 (centres unmarked) [Compound 61, 2-cyclopropyl-4-(4-fluoro-3,3-dimethyl-pyrrolidin-1-yl)-6-[5-(1-methylcyclopropoxy)-1H-indazol-3-yl]pyridazin-3-one]
≤ 50 | ≤ 50 | Cn1nc(-c2n[nH]c3ccc(OC4(C)CC4)cc23)cc(N2CC(O)C(C)(C)C2)c1=O (centres unmarked) [Compound 62, 4-(4-hydroxy-3,3-dimethyl-pyrrolidin-1-yl)-2-methyl-6-[5-(1-methylcyclopropoxy)-1H-indazol-3-yl]pyridazin-3-one]
≤ 50 | ≤ 50 | CN1CCCN(c2cc(-c3n[nH]c4ccc(OC5(C)CC5)cc34)nn(C)c2=O)CC1 [Compound 63, 2-methyl-6-[5-(1-methylcyclopropoxy)-1H-indazol-3-yl]-4-(4-methyl-1,4-diazepan-1-yl)pyridazin-3-one]
50 to 100 | ≤ 50 | CN1CCN(c2cc(-c3n[nH]c4ccc(OC5(C)CC5)cc34)nn(C)c2=O)CC(F)(F)C1 [Compound 64, 4-(6,6-difluoro-4-methyl-1,4-diazepan-1-yl)-2-methyl-6-[5-(1-methylcyclopropoxy)-1H-indazol-3-yl]pyridazin-3-one]
≤ 50 | ≤ 50 | CN1CCN(c2cc(-c3n[nH]c4ccc(OC5(C)CC5)cc34)nn(C)c2=O)CCC1C(F)(F)F (centres unmarked) [Compound 65, 2-methyl-6-[5-(1-methylcyclopropoxy)-1H-indazol-3-yl]-4-[4-methyl-5-(trifluoromethyl)-1,4-diazepan-1-yl]pyridazin-3-one]
≥ 100 | ≥ 100 | Cn1nc(-c2n[nH]c3ccc(OC4(C)CC4)cc23)cc(N2CCCNC(C)(C)C2)c1=O [Compound 67, 4-(3,3-dimethyl-1,4-diazepan-1-yl)-2-methyl-6-[5-(1-methylcyclopropoxy)-1H-indazol-3-yl]pyridazin-3-one]
≥ 100 | ≥ 100 | Cn1nc(-c2n[nH]c3ccc(OC4(C)CC4)cc23)cc(N2CCC(C)(C)NC(C)(C)C2)c1=O [Compound 68, 2-methyl-6-[5-(1-methylcyclopropoxy)-1H-indazol-3-yl]-4-(3,3,5,5-tetramethyl-1,4-diazepan-1-yl)pyridazin-3-one]
≤ 50 | ≤ 50 | CC1CCN(c2cc(-c3n[nH]c4ccc(OC5(C)CC5)cc34)nn(C)c2=O)CC(C)O1 (centres unmarked) [Compound 70, 4-(2,7-dimethyl-1,4-oxazepan-4-yl)-2-methyl-6-[5-(1-methylcyclopropoxy)-1H-indazol-3-yl]pyridazin-3-one]
50 to 100 | ≤ 50 | Cn1nc(-c2n[nH]c3ccc(OC4(C)CC4)cc23)cc(N2CCCOC(C)(C)C2)c1=O [Compound 73, 4-(2,2-dimethyl-1,4-oxazepan-4-yl)-2-methyl-6-[5-(1-methylcyclopropoxy)-1H-indazol-3-yl]pyridazin-3-one]
≤ 50 | ≤ 50 | Cn1nc(-c2n[nH]c3ccc(OC4(C)CC4)cc23)cc(N2CCNC(C(F)(F)F)CC2)c1=O (centres unmarked) [Compound 74, 2-methyl-6-[5-(1-methylcyclopropoxy)-1H-indazol-3-yl]-4-[5-(trifluoromethyl)-1,4-diazepan-1-yl]pyridazin-3-one]
≤ 50 | ≤ 50 | Cn1nc(-c2n[nH]c3ccc(OC4(C)CC4)cc23)cc(N2CCCCC(CO)C2)c1=O (centres unmarked) [Compound 75, 4-[3-(hydroxymethyl)azepan-1-yl]-2-methyl-6-[5-(1-methylcyclopropoxy)-1H-indazol-3-yl]pyridazin-3-one]
≤ 50 | ≤ 50 | Cn1nc(-c2n[nH]c3ccc(OC4(C)CC4)cc23)cc(N2CCCOCC2)c1=O [Compound 76, 2-methyl-6-[5-(1-methylcyclopropoxy)-1H-indazol-3-yl]-4-(1,4-oxazepan-4-yl)pyridazin-3-one]
≤ 50 | ≤ 50 | CC1CCN(c2cc(-c3n[nH]c4ccc(OC5(C)CC5)cc34)nn(C)c2=O)CCC1O (centres unmarked) [Compound 78, 4-(4-hydroxy-5-methyl-azepan-1-yl)-2-methyl-6-[5-(1-methylcyclopropoxy)-1H-indazol-3-yl]pyridazin-3-one]
≤ 50 | ≤ 50 | Cn1nc(-c2n[nH]c3ccc(OC4(C)CC4)cc23)cc(N2CCCC(C)(O)CC2)c1=O (centres unmarked) [Compound 79, 4-(4-hydroxy-4-methyl-azepan-1-yl)-2-methyl-6-[5-(1-methylcyclopropoxy)-1H-indazol-3-yl]pyridazin-3-one]
≤ 50 | ≤ 50 | Cn1nc(-c2n[nH]c3ccc(OC4(C)CC4)cc23)cc(N2CCCCC(C)(O)C2)c1=O (centres unmarked) [Compound 81, 4-(3-hydroxy-3-methyl-azepan-1-yl)-2-methyl-6-[5-(1-methylcyclopropoxy)-1H-indazol-3-yl]pyridazin-3-one]
≤ 50 | ≤ 50 | Cn1nc(-c2n[nH]c3ccc(OC4(C)CC4)cc23)cc(N2CCC(O)C(F)CC2)c1=O (centres unmarked) [Compound 82, 4-(4-fluoro-5-hydroxy-azepan-1-yl)-2-methyl-6-[5-(1-methylcyclopropoxy)-1H-indazol-3-yl]pyridazin-3-one]
≤ 50 | ≤ 50 | Cn1nc(-c2n[nH]c3ccc(OC4(C)CC4)cc23)cc(N2CCCN(CC(C)(C)O)CC2)c1=O [Compound 84, 4-[4-(2-hydroxy-2-methyl-propyl)-1,4-diazepan-1-yl]-2-methyl-6-[5-(1-methylcyclopropoxy)-1H-indazol-3-yl]pyridazin-3-one]
≤ 50 | ≤ 50 | Cn1nc(-c2n[nH]c3ccc(OC4(C)CC4)cc23)cc(N2CCC(C(C)(C)O)C2)c1=O (centres unmarked) [Compound 85, 4-[3-(1-hydroxy-1-methyl-ethyl)pyrrolidin-1-yl]-2-methyl-6-[5-(1-methylcyclopropoxy)-1H-indazol-3-yl]pyridazin-3-one]
≤ 50 | ≤ 50 | Cn1nc(-c2n[nH]c3ccc(OC4(C)CC4)cc23)cc(N2CCOCC(CO)C2)c1=O (centres unmarked) [Compound 88, 4-[6-(hydroxymethyl)-1,4-oxazepan-4-yl]-2-methyl-6-[5-(1-methylcyclopropoxy)-1H-indazol-3-yl]pyridazin-3-one]
≤ 50 | ≤ 50 | Cn1nc(-c2n[nH]c3ccc(OC4(C)CC4)cc23)cc(N2CCOCC(C)(O)C2)c1=O (centres unmarked) [Compound 90, 4-(6-hydroxy-6-methyl-1,4-oxazepan-4-yl)-2-methyl-6-[5-(1-methylcyclopropoxy)-1H-indazol-3-yl]pyridazin-3-one]
≤ 50 | ≤ 50 | Cn1nc(-c2n[nH]c3ccc(OC4(C)CC4)cc23)cc(N2CCOC(CO)CC2)c1=O (centres unmarked) [Compound 92, 4-[7-(hydroxymethyl)-1,4-oxazepan-4-yl]-2-methyl-6-[5-(1-methylcyclopropoxy)-1H-indazol-3-yl]pyridazin-3-one]
≥ 100 | ≥ 100 | Cn1nc(-c2n[nH]c3ccc(OC4(C)CC4)cc23)cc(N2CCNCC(C)(O)C2)c1=O (centres unmarked) [Compound 93, 4-(6-hydroxy-6-methyl-1,4-diazepan-1-yl)-2-methyl-6-[5-(1-methylcyclopropoxy)-1H-indazol-3-yl]pyridazin-3-one]
≤ 50 | ≤ 50 | CC(C)N1CCCN(c2cc(-c3n[nH]c4ccc(OC5(C)CC5)cc34)nn(C)c2=O)CC1 [Compound 96, 4-(4-isopropyl-1,4-diazepan-1-yl)-2-methyl-6-[5-(1-methylcyclopropoxy)-1H-indazol-3-yl]pyridazin-3-one]
